Results as given in PubChem BioAssay (NCI).
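Dose response: 5 concentrations. Exposure: 48 h. Format: 96-well plates. Endpoint: linear interpolation; highest concentration if not reached. The concentration for 50% growth inhibition is given as GI50. TGI marks complete inhibition of growth.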

Legend:
Experiment in all cases: inhibition of tumour cell growth, NCI panel, 48 h
[1] = system: 786-0 renal
[2] = system: A498 renal
[3] = system: A549 NSCLC
[4] = system: ACHN renal
[5] = system: BT-549 breast
[6] = system: CAKI-1 renal
[7] = system: CCRF-CEM leukemia
[8] = system: COLO 205 colon
[9] = system: DU-145 prostate
[10] = system: EKVX NSCLC
[11] = system: HCT-116 colon
[12] = system: HCT-15 colon
[13] = system: HL-60(TB) leukemia
[14] = system: HOP-62 NSCLC
[15] = system: HOP-92 NSCLC
[16] = system: HS 578T breast
[17] = system: HT29 colon
[18] = system: IGROV1 ovarian
[19] = system: K-562 leukemia
[20] = system: KM12 colon
[21] = system: LOX IMVI melanoma
[22] = system: M14 melanoma
[23] = system: MALME-3M melanoma
[24] = system: MDA-MB-231 breast
[25] = system: MDA-MB-435
[26] = system: MDA-N
[27] = system: MOLT-4 leukemia
[28] = system: NCI-H226 lung
[29] = system: NCI-H23 lung
[30] = system: NCI-H460 lung
[31] = system: NCI-H522 lung
[32] = system: NCI/ADR-RES ovarian
[33] = system: OVCAR-3 ovarian
[34] = system: OVCAR-4 ovarian
[35] = system: OVCAR-5 ovarian
[36] = system: OVCAR-8 ovarian
[37] = system: PC-3 prostate
[38] = system: RPMI-8226 leukemia
[39] = system: RXF 393 renal
[40] = system: SF-268 CNS
[41] = system: SF-295 CNS
[42] = system: SF-539 CNS
[43] = system: SK-MEL-2 melanoma
[44] = system: SK-MEL-28 melanoma
[45] = system: SK-MEL-5 melanoma
[46] = system: SK-OV-3 ovarian
[47] = system: SN12C renal
[48] = system: SNB-19 CNS
[49] = system: SR leukemia
[50] = system: SW-620 colon
[51] = system: T-47D breast
[52] = system: TK-10 renal
[53] = system: U251 CNS
[54] = system: UACC-257 melanoma
[55] = system: UACC-62 melanoma
[56] = system: UO-31 renal
[57] = system: HCC-2998 colon
[58] = system: SNB-75 CNS
[59] = system: MCF7 breast

O=C(c1ccccc1)c1ccc2c(c1)NC(=O)c1ccccc1SSc1ccccc1C(=O)N2 gave a TGI [1] of over 100 µM, a TGI [2] of over 100 µM and a TGI [3] of over 100 µM. For the same compound, the TGI [4] was over 100 µM, the TGI [5] was over 100 µM and the TGI [6] was over 100 µM. It also gave a TGI [7] of over 100 µM, a TGI [8] of over 100 µM and a TGI [9] of over 100 µM. The TGI [10] was over 100 µM, the TGI [11] was over 100 µM and the TGI [12] was over 100 µM. It also gave a TGI [13] of over 100 µM, a TGI [14] of over 100 µM and a TGI [15] of over 100 µM. The TGI [16] was over 100 µM, the TGI [17] was over 100 µM and the TGI [18] was over 100 µM. It also gave a TGI [19] of over 100 µM, a TGI [20] of over 100 µM and a TGI [21] of over 100 µM. It also gave a TGI [22] of over 100 µM, a TGI [23] of over 100 µM and a TGI [24] of over 100 µM. For the same compound, the TGI [25] was over 100 µM, the TGI [26] was over 100 µM and the TGI [27] was over 100 µM. It also gave a TGI [28] of over 100 µM, a TGI [29] of over 100 µM and a TGI [30] of over 100 µM. For the same compound, the TGI [31] was over 100 µM, the TGI [32] was over 100 µM and the TGI [33] was over 100 µM. It also gave a TGI [34] of over 100 µM, a TGI [35] of over 100 µM and a TGI [36] of over 100 µM. It also gave a TGI [37] of over 100 µM, a TGI [38] of over 100 µM and a TGI [39] of over 100 µM. The TGI [40] was over 100 µM, the TGI [41] was over 100 µM and the TGI [42] was over 100 µM. For the same compound, the TGI [43] was over 100 µM, the TGI [44] was over 100 µM and the TGI [45] was over 100 µM. For the same compound, the TGI [46] was over 100 µM, the TGI [47] was over 100 µM and the TGI [48] was over 100 µM. For the same compound, the TGI [49] was over 100 µM, the TGI [50] was over 100 µM and the TGI [51] was over 100 µM. For the same compound, the TGI [52] was over 100 µM, the TGI [53] was over 100 µM and the TGI [54] was over 100 µM. For the same compound, the TGI [55] was over 100 µM and the TGI [56] was over 100 µM.
Compound Clc1ccc(C=NC23CC4CC(CC(C4)C2)C3)c(Cl)c1 has a TGI [1] of over 10 µM, a TGI [2] of over 10 µM and a TGI [3] of over 10 µM. For the same compound, the TGI [4] was over 10 µM, the TGI [5] was over 10 µM and the TGI [6] was over 10 µM. The TGI [7] was over 10 µM, the TGI [8] was over 10 µM and the TGI [9] was over 10 µM. The TGI [10] was over 10 µM, the TGI [57] was over 10 µM and the TGI [11] was over 10 µM. It also gave a TGI [12] of over 10 µM, a TGI [13] of over 10 µM and a TGI [14] of over 10 µM. It also gave a TGI [15] of over 10 µM, a TGI [16] of over 10 µM and a TGI [17] of over 10 µM. It also gave a TGI [18] of over 10 µM, a TGI [19] of over 10 µM and a TGI [20] of over 10 µM. It also gave a TGI [21] of over 10 µM, a TGI [22] of over 10 µM and a TGI [23] of over 10 µM. It also gave a TGI [24] of over 10 µM, a TGI [25] of over 10 µM and a TGI [26] of over 10 µM. The TGI [27] was over 10 µM, the TGI [28] was over 10 µM and the TGI [29] was over 10 µM. It also gave a TGI [30] of over 10 µM, a TGI [31] of over 10 µM and a TGI [32] of over 10 µM. For the same compound, the TGI [33] was over 10 µM, the TGI [34] was over 10 µM and the TGI [35] was over 10 µM. The TGI [36] was over 10 µM, the TGI [37] was over 10 µM and the TGI [38] was over 10 µM. For the same compound, the TGI [39] was over 10 µM, the TGI [40] was over 10 µM and the TGI [41] was over 10 µM. For the same compound, the TGI [42] was over 10 µM, the TGI [43] was over 10 µM and the TGI [44] was over 10 µM. It also gave a TGI [45] of over 10 µM, a TGI [46] of over 10 µM and a TGI [47] of over 10 µM. It also gave a TGI [48] of over 10 µM, a TGI [58] of over 10 µM and a TGI [49] of over 10 µM. For the same compound, the TGI [50] was over 10 µM, the TGI [51] was over 10 µM and the TGI [52] was over 10 µM. For the same compound, the TGI [53] was over 10 µM, the TGI [54] was over 10 µM and the TGI [55] was over 10 µM.
With CN(Cc1cnc2nc(N)nc(N)c2n1)c1ccc(C(=O)N[C@@H](CCS(=O)(=O)O)C(=O)O)cc1 the GI50 [1] was 0.0955 µM, the TGI [1] was over 100 µM and the TGI [2] was over 100 µM. The TGI [3] was over 100 µM, the TGI [4] was over 100 µM and the TGI [5] was over 100 µM. For the same compound, the TGI [6] was over 100 µM, the TGI [7] was over 100 µM and the TGI [8] was over 100 µM. It also gave a GI50 [9] of 1.31 µM, a TGI [9] of over 100 µM and a TGI [10] of over 100 µM. The TGI [57] was over 100 µM, the TGI [12] was over 100 µM and the TGI [14] was over 100 µM. The TGI [15] was over 100 µM, the TGI [16] was over 100 µM and the TGI [17] was over 100 µM. For the same compound, the TGI [18] was over 100 µM, the TGI [19] was over 100 µM and the TGI [20] was over 100 µM. The TGI [21] was over 100 µM, the TGI [22] was over 100 µM and the TGI [23] was over 100 µM. For the same compound, the TGI [59] was over 100 µM, the TGI [24] was over 100 µM and the TGI [25] was over 100 µM. The TGI [26] was over 100 µM, the TGI [27] was over 100 µM and the TGI [28] was over 100 µM. For the same compound, the TGI [29] was over 100 µM, the TGI [30] was over 100 µM and the TGI [31] was over 100 µM. The TGI [32] was over 100 µM, the TGI [33] was over 100 µM and the TGI [34] was over 100 µM. For the same compound, the TGI [36] was over 55.3 µM, the TGI [37] was over 100 µM and the TGI [38] was over 100 µM. For the same compound, the TGI [39] was 1.44 µM, the TGI [40] was over 100 µM and the TGI [41] was over 100 µM. The TGI [42] was over 100 µM, the TGI [43] was over 100 µM and the TGI [44] was over 100 µM. It also gave a TGI [45] of over 100 µM, a TGI [46] of over 100 µM and a TGI [47] of over 100 µM. For the same compound, the TGI [48] was over 100 µM, the GI50 [58] was 18.2 µM and the TGI [58] was over 100 µM. For the same compound, the TGI [49] was over 100 µM, the TGI [50] was over 100 µM and the TGI [51] was over 100 µM. It also gave a TGI [52] of over 100 µM, a TGI [53] of over 100 µM and a TGI [54] of over 100 µM. For the same compound, the TGI [55] was over 100 µM and the TGI [56] was over 100 µM.
